Laboratory results from BindingDB's records for doi:10.1002/cbic.201600673 (Université de Nantes, 2017).

Assays:
Assay in all cases: Fluorescence Polarization Assay
Galectin-1 [C3S] = Galectin-1 [C3S] (Human, UniProt P09382, C3S)
Galectin-7 = Galectin-7 (Homo sapiens, UniProt P47929)
Galectin-3 = Galectin-3 (Homo sapiens, UniProt P17931)
Sequence of Galectin-3 (P17931 whole entry): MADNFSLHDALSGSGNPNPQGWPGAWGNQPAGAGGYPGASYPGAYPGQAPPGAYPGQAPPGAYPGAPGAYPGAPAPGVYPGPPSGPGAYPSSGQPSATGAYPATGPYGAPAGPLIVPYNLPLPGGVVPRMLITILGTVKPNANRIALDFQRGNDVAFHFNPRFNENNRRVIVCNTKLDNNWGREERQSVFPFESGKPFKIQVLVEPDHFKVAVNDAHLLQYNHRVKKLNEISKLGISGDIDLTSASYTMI

Sequence of Galectin-7 (P47929 whole entry): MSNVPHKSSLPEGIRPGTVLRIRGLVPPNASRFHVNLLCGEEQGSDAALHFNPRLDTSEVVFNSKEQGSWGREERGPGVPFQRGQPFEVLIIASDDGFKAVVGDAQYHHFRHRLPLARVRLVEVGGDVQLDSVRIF
Sequence of Galectin-1 [C3S] (P09382 2-135 C3S limits assumed): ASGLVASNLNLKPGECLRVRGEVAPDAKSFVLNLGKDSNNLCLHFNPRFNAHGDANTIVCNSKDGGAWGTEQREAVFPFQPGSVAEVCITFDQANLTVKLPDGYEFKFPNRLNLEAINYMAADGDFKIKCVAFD

SMILES	Kd (Galectin-1 [C3S]; 4 °C) [µM]	Kd (Galectin-7; 4 °C) [µM]	Kd (Galectin-3; 4 °C) [µM]	Kd (Galectin-3; 25 °C) [µM]	Kd (Galectin-1 [C3S]; 25 °C) [µM]	Kd (Galectin-7; 25 °C) [µM]
COc1cccc(COC2C(O)[C@H](O[C@@H]3C(CO)O[C@@H](N=[N+]=[N-])C(NC(=O)c4cccc(OC)c4)C3O)OC(CO)[C@@H]2O)c1 (stereo partly drawn) [4-O-[3-O-(3-methoxybenzyl)-β-D-galactopyranosyl)]-1-azido-1,2-dideoxy-2-(3-methoxybenzamido)-β-D-glucopyranose (1)]	23	86	0.66	3.27		
COc1cccc(C(=O)CC2C(O)[C@H](O[C@@H]3OC(CO)[C@H](O)C(OCc4ccc5ccccc5c4)C3O)C(CO)O[C@H]2OCCN=[N+]=[N-])c1 (stereo partly drawn) [[3-O-(2-naphthyl)methyl-β-D-galactopyranosyl]-(1-4)-2-deoxy-2-(3-methoxybenzamido)-β-D-glucopyranoside (11)]	27	90	0.59	2.99		
OCC1O[C@@H](S[C@@H]2OC(CO)[C@H](O)C(n3cc(-c4cccc(F)c4)nn3)C2O)C(O)C(n2cc(-c3cccc(F)c3)nn2)[C@H]1O (stereo not given in full) [TD139]		32				
COc1cccc(C(=O)NC2C(O)[C@H](O[C@@H]3OC(CO)[C@H](O)C(OCc4ccc5ccccc5c4)C3O)C(CO)O[C@H]2OCCNC(=O)CCCCCN2C(=O)C=CC2=O)c1 (stereo partly drawn) [2-[6-Maleimide)caproyl]ethyl [3-O-(2-naphthyl)methyl-β-D-galactopyranosyl]-(1-4)-2-deoxy-2-(3-methoxybenzamido)-β-D-glucopyranoside (13)]	16	21	0.014	0.082	43	129
